Data as given in ChEMBL document CHEMBL3091359, “Potent oxazolidinone antibacterials with heteroaromatic C-ring substructure” (ACS Med Chem Lett, 2013).
Values after ≈ are worked out from the molar mass of the structure shown.

Legend:
Staphylococcus aureus [1] = experiment: Antibacterial activity against methicillin-resistant Staphylococcus aureus SR3637 clinical isolate infected in iv dosed JCL/ICR systemic infection model assessed as mortality administered after 1 hr of infection measured for 7 days; format: functional
Staphylococcus aureus [2] = experiment: Antibacterial activity against methicillin-resistant Staphylococcus aureus SR3637 clinical isolate infected in po dosed JCL/ICR systemic infection model assessed as mortality administered after 1 hr of infection measured for 7 days; format: functional
Staphylococcus aureus [3] = experiment: Antibacterial activity against Staphylococcus aureus SR20549 clinical isolate assessed as […] by CLSI broth microdilution method; format: functional
[4] = AUC (infinity) in ICR mouse at 5.56 mg/kg, po by LC-MS/MS analysis; format: ADME, organism-based; parameters: time infinity, dose 5.56 mg/kg, route oral; details: plasma
Enterococcus faecalis = experiment: Antibacterial activity against Enterococcus faecalis SR1004 clinical isolate assessed as […] by CLSI broth microdilution method; format: functional
Staphylococcus aureus [5] = experiment: Ratio of linezolid MIC to compound MIC for Staphylococcus aureus Smith clinical isolate; format: functional
Cytochrome P450 1A2 = molecular target: T1, Cytochrome P450 1A2 (Homo sapiens, UniProt P05177); experiment: Inhibition of human CYP1A2 assessed as ethoxyresorufin O-deethylation after 20 mins by fluorescence plate reader; format: ADME
T1 sequence (P05177 whole entry): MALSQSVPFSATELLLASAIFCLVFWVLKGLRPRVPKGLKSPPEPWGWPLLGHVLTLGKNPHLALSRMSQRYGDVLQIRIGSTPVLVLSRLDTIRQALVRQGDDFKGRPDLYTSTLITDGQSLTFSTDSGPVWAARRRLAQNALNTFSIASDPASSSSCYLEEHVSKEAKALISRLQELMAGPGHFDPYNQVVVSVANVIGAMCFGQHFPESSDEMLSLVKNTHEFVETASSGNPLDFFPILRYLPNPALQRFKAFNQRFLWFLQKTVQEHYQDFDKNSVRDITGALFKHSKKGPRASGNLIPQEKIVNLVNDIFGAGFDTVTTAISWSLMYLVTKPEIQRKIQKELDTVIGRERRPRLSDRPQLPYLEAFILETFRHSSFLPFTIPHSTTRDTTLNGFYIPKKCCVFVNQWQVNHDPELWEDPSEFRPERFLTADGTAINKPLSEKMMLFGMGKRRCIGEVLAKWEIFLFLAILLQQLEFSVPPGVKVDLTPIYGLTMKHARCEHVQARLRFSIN

Streptococcus pneumoniae [6] = experiment: Antibacterial activity against penicillin-resistant Streptococcus pneumoniae SR11031 clinical isolate assessed as […] by CLSI broth microdilution method; format: functional
MAO-A = molecular target: T2, MAO-A (Rattus norvegicus, UniProt P21396); experiment: Inhibition of rat forebrain MAO-A using [14C]5-HT as substrate at 30 uM preincubated for 20 mins followed by substrate addition measured after 5 mins by liquid scintillation counting analysis; details: probe [14C]5-HT
T2 sequence (P21396 whole entry): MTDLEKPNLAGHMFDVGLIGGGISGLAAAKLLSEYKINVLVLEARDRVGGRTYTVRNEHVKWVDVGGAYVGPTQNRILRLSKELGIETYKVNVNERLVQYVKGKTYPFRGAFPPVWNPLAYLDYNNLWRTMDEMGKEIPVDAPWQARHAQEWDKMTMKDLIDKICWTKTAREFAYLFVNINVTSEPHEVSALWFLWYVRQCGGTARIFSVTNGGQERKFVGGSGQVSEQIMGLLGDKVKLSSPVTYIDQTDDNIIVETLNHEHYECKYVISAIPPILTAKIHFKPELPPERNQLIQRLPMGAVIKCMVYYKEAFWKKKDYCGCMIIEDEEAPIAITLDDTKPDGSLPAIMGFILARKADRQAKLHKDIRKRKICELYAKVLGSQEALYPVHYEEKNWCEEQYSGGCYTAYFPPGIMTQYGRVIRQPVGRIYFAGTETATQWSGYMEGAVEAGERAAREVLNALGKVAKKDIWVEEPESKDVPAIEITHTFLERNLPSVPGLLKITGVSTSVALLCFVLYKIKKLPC

[7] = Tmax in ICR mouse at 5.56 mg/kg, po by LC-MS/MS analysis; format: ADME, organism-based; parameters: dose 5.56 mg/kg, route oral; details: in vivo
Enterococcus faecium = experiment: Antibacterial activity against Enterococcus faecium SR7940 clinical isolate assessed as […] by CLSI broth microdilution method; format: functional
Cytochrome P450 2D6 = Cytochrome P450 2D6 (Homo sapiens, UniProt P10635); experiment: Inhibition of human CYP2D6 assessed as dextromethorphan O-demethylation after 20 mins by LC-MS/MS analysis; format: ADME
Streptococcus pneumoniae [8] = experiment: Antibacterial activity against Streptococcus pneumoniae SR26207 clinical isolate assessed as […] by CLSI broth microdilution method; format: functional
[9] = Cmax in ICR mouse at 5.56 mg/kg, po by LC-MS/MS analysis; format: ADME, organism-based; parameters: dose 5.56 mg/kg, route oral; details: in vivo
Cytochrome P450 2C9 = Cytochrome P450 2C9 (Homo sapiens, UniProt P11712); experiment: Inhibition of human CYP2C9 assessed as tolbutamide hydroxylation after 20 mins by LC-MS/MS analysis; format: ADME
Staphylococcus aureus [10] = experiment: Ratio of linezolid MIC to compound MIC for Staphylococcus aureus SR20549 clinical isolate; format: functional
Cytochrome P450 3A4 = Cytochrome P450 3A4 (Homo sapiens, UniProt P08684); experiment: Inhibition of human CYP3A4 assessed as terfenadine hydroxylation after 20 mins by LC-MS/MS analysis; format: ADME
Staphylococcus aureus [11] = experiment: Antibacterial activity against methicillin-resistant Staphylococcus aureus SR3637 clinical isolate assessed as […] by CLSI broth microdilution method; format: functional
Staphylococcus aureus [12] = experiment: Antibacterial activity against Staphylococcus aureus Smith clinical isolate assessed as […] by CLSI broth microdilution method; format: functional
Moraxella catarrhalis = experiment: Antibacterial activity against Moraxella catarrhalis SR26840 clinical isolate assessed as […] by CLSI broth microdilution method; format: functional
Staphylococcus aureus [13] = experiment: Antibacterial activity against linezolid-resistant Staphylococcus aureus NRS271 clinical isolate harboring G2576T mutation in peptidyl transferase center domain V of 23S rRNA gene assessed as […] by CLSI broth microdilution method; format: functional
MAO-B = molecular target: T3, MAO-B (Rattus norvegicus, UniProt P19643); experiment: Inhibition of rat forebrain MAO-B using [14C]PEA as substrate at 30 uM preincubated for 20 mins followed by substrate addition measured after 10 mins by liquid scintillation counting analysis; details: probe [14C]PEA
T3 sequence (P19643 whole entry): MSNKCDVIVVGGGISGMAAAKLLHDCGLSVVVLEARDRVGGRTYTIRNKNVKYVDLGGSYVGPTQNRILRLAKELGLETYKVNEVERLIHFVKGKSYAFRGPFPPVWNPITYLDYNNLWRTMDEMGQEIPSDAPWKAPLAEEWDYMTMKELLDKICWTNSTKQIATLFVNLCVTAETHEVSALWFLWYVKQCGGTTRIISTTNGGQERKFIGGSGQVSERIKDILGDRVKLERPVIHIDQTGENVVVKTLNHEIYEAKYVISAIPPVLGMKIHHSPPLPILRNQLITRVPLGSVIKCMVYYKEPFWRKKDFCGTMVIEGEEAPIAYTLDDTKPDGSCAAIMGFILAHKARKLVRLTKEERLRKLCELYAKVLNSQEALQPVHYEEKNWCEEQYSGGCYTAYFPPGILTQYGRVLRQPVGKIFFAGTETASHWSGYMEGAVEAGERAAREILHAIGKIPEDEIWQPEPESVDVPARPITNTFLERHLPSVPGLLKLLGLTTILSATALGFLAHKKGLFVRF

Haemophilus influenzae = experiment: Antibacterial activity against Haemophilus influenzae SR27914 clinical isolate assessed as […] by CLSI broth microdilution method; format: functional
Staphylococcus aureus [14] = experiment: Potency index, ratio of linezolid ED50 to compound ED50 for methicillin-resistant Staphylococcus aureus SR3637 in po dosed JCL/ICR mouse systemic infection model; format: functional
[15] = Cmax in ICR mouse at 67.7 mg/kg, po by LC-MS/MS analysis; format: ADME, organism-based; parameters: dose 67.7 mg/kg, route oral; details: in vivo
[16] = AUC (infinity) in ICR mouse at 67.7 mg/kg, po by LC-MS/MS analysis; format: ADME, organism-based; parameters: time infinity, dose 67.7 mg/kg, route oral; details: plasma
[17] = Tmax in ICR mouse at 67.7 mg/kg, po by LC-MS/MS analysis; format: ADME, organism-based; parameters: dose 67.7 mg/kg, route oral; details: in vivo

Sequence of Cytochrome P450 2D6 (P10635 whole entry): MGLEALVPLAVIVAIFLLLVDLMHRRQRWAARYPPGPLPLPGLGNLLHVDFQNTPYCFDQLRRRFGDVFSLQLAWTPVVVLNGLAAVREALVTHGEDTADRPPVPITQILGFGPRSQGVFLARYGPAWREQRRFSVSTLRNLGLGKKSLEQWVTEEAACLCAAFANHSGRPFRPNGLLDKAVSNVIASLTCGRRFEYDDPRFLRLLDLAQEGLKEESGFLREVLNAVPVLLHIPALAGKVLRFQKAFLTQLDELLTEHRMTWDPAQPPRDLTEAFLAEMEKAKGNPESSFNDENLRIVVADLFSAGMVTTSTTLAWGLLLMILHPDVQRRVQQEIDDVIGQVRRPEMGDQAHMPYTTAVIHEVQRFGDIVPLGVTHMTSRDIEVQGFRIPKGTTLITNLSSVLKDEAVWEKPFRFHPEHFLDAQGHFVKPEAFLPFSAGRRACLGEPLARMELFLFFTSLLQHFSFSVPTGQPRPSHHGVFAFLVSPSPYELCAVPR
Sequence of Cytochrome P450 3A4 (P08684 whole entry): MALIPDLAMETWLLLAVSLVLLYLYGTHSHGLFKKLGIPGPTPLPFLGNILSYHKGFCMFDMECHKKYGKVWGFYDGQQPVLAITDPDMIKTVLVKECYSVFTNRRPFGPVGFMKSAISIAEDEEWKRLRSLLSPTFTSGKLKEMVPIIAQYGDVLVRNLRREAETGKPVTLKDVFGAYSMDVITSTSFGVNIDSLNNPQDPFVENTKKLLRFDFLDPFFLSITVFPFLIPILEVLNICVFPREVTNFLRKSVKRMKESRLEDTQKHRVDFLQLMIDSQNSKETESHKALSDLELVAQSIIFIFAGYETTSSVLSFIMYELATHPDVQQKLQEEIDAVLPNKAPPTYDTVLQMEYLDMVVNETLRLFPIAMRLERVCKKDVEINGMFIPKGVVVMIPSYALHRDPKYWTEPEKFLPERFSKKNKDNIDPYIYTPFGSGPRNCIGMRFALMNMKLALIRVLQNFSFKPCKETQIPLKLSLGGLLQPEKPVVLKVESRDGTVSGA
Sequence of Cytochrome P450 2C9 (P11712 whole entry): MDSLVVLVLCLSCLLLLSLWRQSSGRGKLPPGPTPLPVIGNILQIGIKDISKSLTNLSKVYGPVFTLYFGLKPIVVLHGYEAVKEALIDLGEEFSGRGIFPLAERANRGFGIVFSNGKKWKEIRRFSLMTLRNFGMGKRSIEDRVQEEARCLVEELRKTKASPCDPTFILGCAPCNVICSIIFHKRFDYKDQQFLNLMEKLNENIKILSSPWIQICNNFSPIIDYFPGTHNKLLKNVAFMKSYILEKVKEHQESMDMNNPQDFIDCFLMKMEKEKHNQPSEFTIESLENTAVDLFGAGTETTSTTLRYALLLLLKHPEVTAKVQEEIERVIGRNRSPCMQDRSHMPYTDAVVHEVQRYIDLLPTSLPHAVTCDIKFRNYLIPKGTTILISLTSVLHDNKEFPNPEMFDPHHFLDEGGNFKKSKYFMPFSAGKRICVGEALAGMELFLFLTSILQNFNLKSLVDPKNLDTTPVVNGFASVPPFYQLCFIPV

Row | Structure (SMILES) | ED50 (Staphylococcus aureus [1]) [mg/kg] | ED50 (Staphylococcus aureus [2]) [mg/kg] | MIC (Staphylococcus aureus [3]) [µg/mL] | MIC (Enterococcus faecalis) [µg/mL] | IC50 (Cytochrome P450 1A2) [µM] | MIC (Streptococcus pneumoniae [6]) [µg/mL] | inhibition at 5 min, 30 µM (MAO-A) [%] | MIC (Enterococcus faecium) [µg/mL] | IC50 (Cytochrome P450 2D6) [µM] | MIC (Streptococcus pneumoniae [8]) [µg/mL] | IC50 (Cytochrome P450 2C9) [µM] | IC50 (Cytochrome P450 3A4) [µM] | MIC (Staphylococcus aureus [11]) [µg/mL] | MIC (Staphylococcus aureus [12]) [µg/mL] | MIC (Moraxella catarrhalis) [µg/mL] | MIC (Staphylococcus aureus [13]) [µg/mL] | inhibition at 10 min, 30 µM (MAO-B) [%] | MIC (Haemophilus influenzae) [µg/mL] | other results
1 | CC(=O)NC[C@H]1CN(c2ccc(-c3ccn4ncnc4c3)c(F)c2)C(=O)O1 | 0.34 | 0.55 | 0.25 (≈ 0.677 µM) | 0.25 (≈ 0.677 µM) | > 20 | ≤ 0.063 | 55.9 | 0.25 (≈ 0.677 µM) | > 20 | ≤ 0.063 | > 20 | > 20 | 0.25 (≈ 0.677 µM) | 0.5 (≈ 1.35 µM) | 4 (≈ 10.8 µM) | 4 (≈ 10.8 µM) | 78.2 | 4 (≈ 10.8 µM) | AUC(0-inf) [4]: 30900 ng·h/mL; Ratio (Staphylococcus aureus [5]): 4; Tmax [7]: 60 min; Cmax [9]: 4780 ng/mL; Ratio (Staphylococcus aureus [10]): 2; Ratio ED50 (Staphylococcus aureus [14]): 4
2 | O=C1O[C@@H](Cn2ccnn2)CN1c1ccc(-c2ccc3nccn3c2)c(F)c1 |  |  | 0.25 (≈ 0.661 µM) | 0.5 (≈ 1.32 µM) |  | ≤ 0.063 |  | 0.5 (≈ 1.32 µM) |  | ≤ 0.063 |  |  | 0.25 (≈ 0.661 µM) | 0.5 (≈ 1.32 µM) | 4 (≈ 10.6 µM) | 4 (≈ 10.6 µM) |  | 4 (≈ 10.6 µM) | 
3 | O=C1O[C@@H](Cn2ccnn2)CN1c1ccc(-c2ccn3ccnc3c2)c(F)c1 | 0.95 | 1.02 | 0.125 (≈ 0.33 µM) | 0.25 (≈ 0.661 µM) | > 20 | ≤ 0.063 | 41.2 | 0.25 (≈ 0.661 µM) | > 20 | ≤ 0.063 | > 20 | 15 | 0.125 (≈ 0.33 µM) | 0.25 (≈ 0.661 µM) | 2 (≈ 5.29 µM) | 2 (≈ 5.29 µM) | 26.7 | 2 (≈ 5.29 µM) | 
4 | O=C1O[C@@H](Cn2ccnn2)CN1c1ccc(-c2ccc3ncnn3c2)c(F)c1 |  |  | 0.25 (≈ 0.659 µM) | 0.5 (≈ 1.32 µM) |  | ≤ 0.063 |  | 0.25 (≈ 0.659 µM) |  | ≤ 0.063 |  |  | 0.25 (≈ 0.659 µM) | 0.5 (≈ 1.32 µM) | 8 (≈ 21.1 µM) | 8 (≈ 21.1 µM) |  | 4 (≈ 10.5 µM) | 
5 | O=C1O[C@@H](Cn2ccnn2)CN1c1ccc(-c2ccn3ncnc3c2)c(F)c1 |  | 0.95 | 0.125 (≈ 0.33 µM) | 0.25 (≈ 0.659 µM) | > 20 | ≤ 0.063 | 33.2 | 0.25 (≈ 0.659 µM) | > 20 | ≤ 0.063 | > 20 | > 20 | 0.25 (≈ 0.659 µM) | 0.25 (≈ 0.659 µM) | 4 (≈ 10.5 µM) | 2 (≈ 5.27 µM) | 27.9 | 2 (≈ 5.27 µM) | 
6 | CC(=O)NC[C@H]1CN(c2ccc(N3CCOCC3)c(F)c2)C(=O)O1 [LINEZOLID] |  | 1.98 |  |  | > 20 |  |  | 2 (≈ 5.93 µM) | > 20 |  | > 20 | > 20 |  |  | 8 (≈ 23.7 µM) | 32 (≈ 94.9 µM) |  | 16 (≈ 47.4 µM) | Cmax [15]: 37000 ng/mL; AUC(0-inf) [16]: 162000 ng·h/mL; Tmax [17]: 30 min
